# Assay results reported in patent US20100267561A1, “HERBICIDAL PYRIDAZINONE DERIVATIVES” (priority 2007, published 2010).
# Tests used:
# Assay in all cases: Test B pre-/postemergence plant response
# Format in all cases: in vivo
# [1] = test system: Italian ryegrass (Lolium multiflorum)
# In short: (§1)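 Preemergence and postemergence (plants 2-18 cm, 1- to 4-leaf stage) applications used test chemicals in a non-phytotoxic solvent with surfactant. Plants were held in a greenhouse 13 to 15 days, then rated visually against controls on a 0-100 scale (0 no effect, 100 complete control).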
# [2] = test system: blackgrass (Alopecurus myosuroides); conditions: for Blackgrass plant response rating: 8 g ai/ha
# In short: as §1
# [3] = test system: catchweed bedstraw (Galium aparine); conditions: Preemergence; for Galium plant response rating: scale 0 to 100
# In short: as §1
# [4] = test system: downy bromegrass (Bromus tectorum); conditions: for Bromegrass, Downy plant response rating: 8 g ai/ha
# In short: as §1
# [5] = test system: eastern black (E.B.) nightshade (Solanum ptycanthum); conditions: Preemergence; for Nightshade, E. B. plant response rating: scale 0 to 100
# In short: as §1
# [6] = test system: giant foxtail (Setaria faberii)
# In short: as §1
# [7] = test system: green foxtail (Setaria viridis)
# In short: as §1
# [8] = test system: johnsongrass (Sorghum halepense)
# In short: as §1
# [9] = test system: morningglory (Ipomoea coccinea)
# In short: as §1
# [10] = test system: pigweed (Amaranthus retroflexus)
# In short: as §1
# [11] = test system: velvetleaf (Abutilon theophrasti)
# In short: as §1
# wild oat (Avena fatua) = test system: wild oat (Avena fatua)
# In short: as §1
# [12] = test system: woolly cupgrass (Eriochloa villosa)
# In short: as §1
# [13] = test system: yellow nutsedge (Cyperus esculentus)
# In short: as §1
# [14] = 8 g ai/ha, postemergence, 0-100 scale
# [15] = 16 g ai/ha, postemergence, 0-100 scale
# [16] = Postemergence, 31 g ai/ha, scale 0 to 100
# [17] = Postemergence, 62 g ai/ha, scale 0 to 100, 0 no effect, 100 complete control
# [18] = Preemergence, 31 g ai/ha, scale 0 to 100 (0 no effect, 100 complete control)
# [19] = Preemergence, 62 g ai/ha, 0 to 100 scale, 0 no effect, 100 complete control
# [20] = Preemergence, 8 g ai/ha, scale 0 to 100
# [21] = Preemergence, 16 g ai/ha, scale 0 to 100
# [22] = Postemergence, 16 g ai/ha, scale 0 to 100
# [23] = Preemergence, 16 g ai/ha, scale 0 to 100 (0 no effect, 100 complete control)
# [24] = 31 g ai/ha, scale 0 to 100 (0 no effect, 100 complete control)
# [25] = 62 g ai/ha, 0 to 100 scale, 0 no effect, 100 complete control
structure (smiles),measurement,setting,value
CCc1cc(-c2ccc(C(F)(F)F)cc2)nn1-c1c(O)c(OC)nn(C)c1=O [Compound 66],"Ryegrass, Italian plant response rating",[1]; [14],60
same,"Ryegrass, Italian plant response rating",[1]; [15],100
same,"Plant response rating, Ryegrass, Italian",[1]; [16],100
same,"Plant response rating, Ryegrass, Italian",[1]; [17],100
same,"Plant response rating, Ryegrass, Italian",[1]; [18],100
same,"Plant response rating, Ryegrass, Italian",[1]; [19],100
same,"Ryegrass, Italian plant response rating",[1]; [20],100
same,"Ryegrass, Italian plant response rating",[1]; [21],100
same,Blackgrass plant response rating,"[2]; postemergence, 0-100 scale",90
same,"Plant response rating, Blackgrass",[2]; [22],100
same,"Plant response rating, Blackgrass",[2]; [16],100
same,"Plant response rating, Blackgrass",[2]; [17],100
same,"Plant response rating, Blackgrass",[2]; [23],100
same,"Plant response rating, Blackgrass",[2]; [18],100
same,"Plant response rating, Blackgrass",[2]; [19],100
same,Blackgrass plant response rating,"[2]; Preemergence, scale 0 to 100",90
same,"Plant response rating, Galium",[3]; [24],0
same,"Plant response rating, Galium",[3]; [25],0
same,Galium plant response rating,[3]; 8 g ai/ha,0
same,Galium plant response rating,[3]; 16 g ai/ha,0
same,"Bromegrass, Downy plant response rating","[4]; postemergence, 0-100 scale",80
same,"Plant response rating, Bromegrass, Downy",[4]; [22],95
same,"Plant response rating, Bromegrass, Downy",[4]; [16],98
same,"Plant response rating, Bromegrass, Downy",[4]; [17],98
same,"Plant response rating, Bromegrass, Downy",[4]; [23],85
same,"Plant response rating, Bromegrass, Downy",[4]; [18],100
same,"Plant response rating, Bromegrass, Downy",[4]; [19],100
same,"Bromegrass, Downy plant response rating","[4]; Preemergence, scale 0 to 100",85
same,"Plant response rating, Nightshade, E. B.",[5]; [24],0
same,"Plant response rating, Nightshade, E. B.",[5]; [25],0
same,"Nightshade, E. B. plant response rating",[5]; 8 g ai/ha,0
same,"Nightshade, E. B. plant response rating",[5]; 16 g ai/ha,0
same,"Foxtail, Giant plant response rating",[6]; [14],85
same,"Plant response rating, Foxtail, Giant",[6]; [22],98
same,"Plant response rating, Foxtail, Giant",[6]; [16],100
same,"Plant response rating, Foxtail, Giant",[6]; [17],100
same,"Plant response rating, Foxtail, Giant",[6]; [18],95
same,"Plant response rating, Foxtail, Giant",[6]; [19],95
same,"Foxtail, Giant plant response rating",[6]; [20],0
same,"Foxtail, Giant plant response rating",[6]; [21],45
same,"Foxtail, Green plant response rating",[7]; [14],80
same,"Plant response rating, Foxtail, Green",[7]; [22],100
same,"Plant response rating, Foxtail, Green",[7]; [16],100
same,"Plant response rating, Foxtail, Green",[7]; [17],100
same,"Plant response rating, Foxtail, Green",[7]; [18],100
same,"Plant response rating, Foxtail, Green",[7]; [19],100
same,"Foxtail, Green plant response rating",[7]; [20],98
same,"Foxtail, Green plant response rating",[7]; [21],100
same,Johnsongrass plant response rating,[8]; [14],75
same,Johnsongrass plant response rating,[8]; [15],100
same,"Plant response rating, Johnsongrass",[8]; [16],100
same,"Plant response rating, Johnsongrass",[8]; [17],100
same,"Plant response rating, Johnsongrass",[8]; [18],98
same,"Plant response rating, Johnsongrass",[8]; [19],100
same,Johnsongrass plant response rating,[8]; [20],70
same,Johnsongrass plant response rating,[8]; [21],95
same,Morningglory plant response rating,[9]; [14],0
same,Morningglory plant response rating,[9]; [15],0
same,"Plant response rating, Morningglory",[9]; [16],0
same,"Plant response rating, Morningglory",[9]; [17],0
same,"Plant response rating, Morningglory",[9]; [18],0
same,"Plant response rating, Morningglory",[9]; [19],0
same,Morningglory plant response rating,[9]; [20],0
same,Morningglory plant response rating,[9]; [21],0
same,Pigweed plant response rating,[10]; [14],0
same,Pigweed plant response rating,[10]; [15],0
same,"Plant response rating, Pigweed",[10]; [16],0
same,"Plant response rating, Pigweed",[10]; [17],0
same,"Plant response rating, Pigweed",[10]; [18],0
same,"Plant response rating, Pigweed",[10]; [19],95
same,Pigweed plant response rating,[10]; [20],0
same,Pigweed plant response rating,[10]; [21],0
same,Velvetleaf plant response rating,[11]; [14],0
same,Velvetleaf plant response rating,[11]; [15],0
same,"Plant response rating, Velvetleaf",[11]; [16],0
same,"Plant response rating, Velvetleaf",[11]; [17],0
same,"Plant response rating, Velvetleaf",[11]; [18],0
same,"Plant response rating, Velvetleaf",[11]; [19],0
same,Velvetleaf plant response rating,[11]; [20],0
same,Velvetleaf plant response rating,[11]; [21],0
same,"Oat, Wild plant response rating",wild oat (Avena fatua); [14],95
same,"Oat, Wild plant response rating",wild oat (Avena fatua); [15],100
same,"Plant response rating, Oat, Wild",wild oat (Avena fatua); [16],100
same,"Plant response rating, Oat, Wild",wild oat (Avena fatua); [17],100
same,"Plant response rating, Oat, Wild",wild oat (Avena fatua); [18],95
same,"Plant response rating, Oat, Wild",wild oat (Avena fatua); [19],100
same,"Oat, Wild plant response rating",wild oat (Avena fatua); [20],90
same,"Oat, Wild plant response rating",wild oat (Avena fatua); [21],95
same,"Cupgrass, Woolly plant response rating",[12]; [14],90
same,"Plant response rating, Cupgrass, Woolly",[12]; [22],95
same,"Plant response rating, Cupgrass, Woolly",[12]; [16],100
same,"Plant response rating, Cupgrass, Woolly",[12]; [17],100
same,"Plant response rating, Cupgrass, Woolly",[12]; [18],90
same,"Plant response rating, Cupgrass, Woolly",[12]; [19],98
same,"Cupgrass, Woolly plant response rating",[12]; [20],0
same,"Cupgrass, Woolly plant response rating",[12]; [21],80
same,"Nutsedge, Yellow plant response rating",[13]; [14],0
same,"Nutsedge, Yellow plant response rating",[13]; [15],0
same,"Plant response rating, Nutsedge, Yellow",[13]; [16],0
same,"Plant response rating, Nutsedge, Yellow",[13]; [17],0
same,"Plant response rating, Nutsedge, Yellow",[13]; [18],0
same,"Plant response rating, Nutsedge, Yellow",[13]; [19],100
same,"Nutsedge, Yellow plant response rating",[13]; [20],0
same,"Nutsedge, Yellow plant response rating",[13]; [21],0
